Assay results published in patent publication US20260226493A1, “HERBICIDE RESISTANT PLANTS” (SYNGENTA CROP PROTECTION AG, priority 2023, published 2026).

What was measured:
Test in all cases: BIO3-BIO1 mutant enzyme activity in the presence of herbicide, percentage inhibition (fluorometric DAPA assay)
Assay type in all cases: biochemical
Settings in all cases: read-out: percentage inhibition
[1] = molecular target: T1, Arabidopsis thaliana BIO3-BIO1 (BioDA) mutants (Arabidopsis thaliana, UniProt B0F481, W392C)
T1 construct: with the predicted N-terminal mitochondrial transit peptide removed; 6xHis-tag (N); thrombin cleavage site (N); made in house; host or cells: E. coli BL21 (DE3) bioA
T1 sequence (B0F481 23-833 W392C): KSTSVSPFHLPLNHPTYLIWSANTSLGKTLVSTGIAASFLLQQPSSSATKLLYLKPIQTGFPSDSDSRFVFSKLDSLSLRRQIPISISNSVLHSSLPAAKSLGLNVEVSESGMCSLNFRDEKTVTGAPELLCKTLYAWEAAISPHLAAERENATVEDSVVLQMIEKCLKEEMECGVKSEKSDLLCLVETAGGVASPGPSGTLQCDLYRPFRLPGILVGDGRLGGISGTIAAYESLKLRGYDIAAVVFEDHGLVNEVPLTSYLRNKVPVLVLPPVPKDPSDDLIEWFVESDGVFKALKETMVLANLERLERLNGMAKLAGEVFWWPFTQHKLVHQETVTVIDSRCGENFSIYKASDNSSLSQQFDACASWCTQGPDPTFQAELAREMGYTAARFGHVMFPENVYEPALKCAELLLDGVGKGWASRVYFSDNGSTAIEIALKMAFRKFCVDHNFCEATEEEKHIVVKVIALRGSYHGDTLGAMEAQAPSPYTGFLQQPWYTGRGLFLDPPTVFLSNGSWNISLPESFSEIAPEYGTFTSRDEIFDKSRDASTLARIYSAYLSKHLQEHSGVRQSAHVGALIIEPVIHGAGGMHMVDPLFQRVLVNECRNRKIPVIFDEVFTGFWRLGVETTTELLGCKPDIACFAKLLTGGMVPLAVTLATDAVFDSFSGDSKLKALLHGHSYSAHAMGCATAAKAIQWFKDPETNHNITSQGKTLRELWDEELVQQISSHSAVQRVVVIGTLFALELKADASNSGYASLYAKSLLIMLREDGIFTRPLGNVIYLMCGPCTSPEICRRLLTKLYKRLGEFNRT
How it was run: (§1)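 Percentage inhibition compares activity at one of three herbicide concentrations against DMSO, from o-phthalaldehyde-derivatised DAPA fluorescence (ex 410, em 470 nm). Purified N-His BIO3-BIO1 variants (50 nM, E. coli-expressed) saw herbicide 10 min at 20 °C in pH 8.6 EPPS buffer, then 20 μM KAPA plus 100 μM spermidine for 75 min at 20 °C.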

[2] = molecular target: T2, Arabidopsis thaliana BIO3-BIO1 (BioDA) mutants (Arabidopsis thaliana, UniProt B0F481, A609H)
T2 construct: with the predicted N-terminal mitochondrial transit peptide removed; 6xHis-tag (N); thrombin cleavage site (N); made in house; host or cells: E. coli BL21 (DE3) bioA
T2 sequence (B0F481 23-833 A609H): as the sequence (B0F481 23-833 W392C) above, with C370W, A587H counted along it
How it was run: as §1

[3] = molecular target: T3, Arabidopsis thaliana BIO3-BIO1 (BioDA) mutants (Arabidopsis thaliana, UniProt B0F481, S509E)
T3 construct: with the predicted N-terminal mitochondrial transit peptide removed; 6xHis-tag (N); thrombin cleavage site (N); made in house; host or cells: E. coli BL21 (DE3) bioA
T3 sequence (B0F481 23-833 S509E): as the sequence (B0F481 23-833 W392C) above, with C370W, S487E counted along it
How it was run: as §1

[4] = molecular target: T4, Arabidopsis thaliana BIO3-BIO1 (BioDA) mutants (Arabidopsis thaliana, UniProt B0F481, F348S)
T4 construct: with the predicted N-terminal mitochondrial transit peptide removed; 6xHis-tag (N); thrombin cleavage site (N); made in house; host or cells: E. coli BL21 (DE3) bioA
T4 sequence (B0F481 23-833 F348S): as the sequence (B0F481 23-833 W392C) above, with F326S, C370W counted along it
How it was run: as §1

[5] = molecular target: T5, Arabidopsis thaliana BIO3-BIO1 (BioDA) mutants (Arabidopsis thaliana, UniProt B0F481, A609M)
T5 construct: with the predicted N-terminal mitochondrial transit peptide removed; 6xHis-tag (N); thrombin cleavage site (N); made in house; host or cells: E. coli BL21 (DE3) bioA
T5 sequence (B0F481 23-833 A609M): as the sequence (B0F481 23-833 W392C) above, with C370W, A587M counted along it
How it was run: as §1

[6] = molecular target: T6, Arabidopsis thaliana BIO3-BIO1 (BioDA) mutants (Arabidopsis thaliana, UniProt B0F481, F348E)
T6 construct: with the predicted N-terminal mitochondrial transit peptide removed; 6xHis-tag (N); thrombin cleavage site (N); made in house; host or cells: E. coli BL21 (DE3) bioA
T6 sequence (B0F481 23-833 F348E): as the sequence (B0F481 23-833 W392C) above, with F326E, C370W counted along it
How it was run: as §1

[7] = molecular target: T7, Arabidopsis thaliana BIO3-BIO1 (BioDA) mutants (Arabidopsis thaliana, UniProt B0F481, F348N)
T7 construct: with the predicted N-terminal mitochondrial transit peptide removed; 6xHis-tag (N); thrombin cleavage site (N); made in house; host or cells: E. coli BL21 (DE3) bioA
T7 sequence (B0F481 23-833 F348N): as the sequence (B0F481 23-833 W392C) above, with F326N, C370W counted along it
How it was run: as §1

[8] = molecular target: T8, Arabidopsis thaliana BIO3-BIO1 (BioDA) mutants (Arabidopsis thaliana, UniProt B0F481, Y511M)
T8 construct: with the predicted N-terminal mitochondrial transit peptide removed; 6xHis-tag (N); thrombin cleavage site (N); made in house; host or cells: E. coli BL21 (DE3) bioA
T8 sequence (B0F481 23-833 Y511M): as the sequence (B0F481 23-833 W392C) above, with C370W, Y489M counted along it
How it was run: as §1

[9] = molecular target: T9, Arabidopsis thaliana BIO3-BIO1 (BioDA) mutants (Arabidopsis thaliana, UniProt B0F481, C388M)
T9 construct: with the predicted N-terminal mitochondrial transit peptide removed; 6xHis-tag (N); thrombin cleavage site (N); made in house; host or cells: E. coli BL21 (DE3) bioA
T9 sequence (B0F481 23-833 C388M): as the sequence (B0F481 23-833 W392C) above, with C366M, C370W counted along it
How it was run: as §1

[10] = molecular target: T10, Arabidopsis thaliana BIO3-BIO1 (BioDA) mutants (Arabidopsis thaliana, UniProt B0F481, T512D)
T10 construct: with the predicted N-terminal mitochondrial transit peptide removed; 6xHis-tag (N); thrombin cleavage site (N); made in house; host or cells: E. coli BL21 (DE3) bioA
T10 sequence (B0F481 23-833 T512D): as the sequence (B0F481 23-833 W392C) above, with C370W, T490D counted along it
How it was run: as §1

[11] = molecular target: T11, Arabidopsis thaliana BIO3-BIO1 (BioDA) mutants (Arabidopsis thaliana, UniProt B0F481, P529A)
T11 construct: with the predicted N-terminal mitochondrial transit peptide removed; 6xHis-tag (N); thrombin cleavage site (N); made in house; host or cells: E. coli BL21 (DE3) bioA
T11 sequence (B0F481 23-833 P529A): as the sequence (B0F481 23-833 W392C) above, with C370W, P507A counted along it
How it was run: as §1

## CCn1c(C)c(-c2ccc(F)cc2F)c(=O)c(C(=O)O)c1-c1ccc(Cl)c(Cl)c1 [Compound C, 2-(3,4-dichlorophenyl)-5-(2,4-difluorophenyl)-1-ethyl-6-methyl-4-oxo-pyridine-3-carboxylic acid]
[1]
  inhibition at 0.2 µM: 20%
  inhibition at 1 µM: 55%
  inhibition at 5 µM: 87%
[2]
  inhibition at 0.2 µM: 0%
  inhibition at 1 µM: 7%
  inhibition at 5 µM: 20%
[3]
  inhibition at 0.2 µM: 57%
  inhibition at 1 µM: 87%
  inhibition at 5 µM: 97%
[4]
  inhibition at 0.2 µM: 9%
  inhibition at 1 µM: 7%
  inhibition at 5 µM: 22%
[5]
  inhibition at 0.2 µM: 9%
  inhibition at 1 µM: 5%
  inhibition at 5 µM: 13%
[6]
  inhibition at 0.2 µM: 19%
  inhibition at 1 µM: 57%
  inhibition at 5 µM: 86%
[7]
  inhibition at 0.2 µM: 0%
  inhibition at 1 µM: 2%
  inhibition at 5 µM: 17%
[8]
  inhibition at 0.2 µM: 76%
  inhibition at 1 µM: 99%
  inhibition at 5 µM: 100%
[9]
  inhibition at 0.2 µM: 20%
  inhibition at 1 µM: 17%
  inhibition at 5 µM: 69%
[10]
  inhibition at 0.2 µM: 79%
  inhibition at 1 µM: 95%
  inhibition at 5 µM: 97%
[11]
  inhibition at 0.2 µM: 4%
  inhibition at 1 µM: 25%
  inhibition at 5 µM: 71%

## CCn1c(Cn2ccc(C(F)(F)F)n2)cc(=O)c(C(=O)O)c1-c1ccc(Cl)c(Cl)c1 [Compound L, 2-(3,4-dichlorophenyl)-1-ethyl-4-oxo-6-[[3-(trifluoromethyl)pyrazol-1-yl]methyl]pyridine-3-carboxylic acid]
[2]
  inhibition at 0.01 µM: 0%
  inhibition at 0.075 µM: 0%
  inhibition at 0.5 µM: 0%
[4]
  inhibition at 0.01 µM: 7%
  inhibition at 0.075 µM: 3%
  inhibition at 0.5 µM: 32%
[5]
  inhibition at 0.01 µM: 3%
  inhibition at 0.075 µM: 17%
  inhibition at 0.5 µM: 19%
[6]
  inhibition at 0.01 µM: 0%
  inhibition at 0.075 µM: 0%
  inhibition at 0.5 µM: 32%
[7]
  inhibition at 0.01 µM: 0%
  inhibition at 0.075 µM: 0%
  inhibition at 0.5 µM: 21%
[9]
  inhibition at 0.01 µM: 10%
  inhibition at 0.075 µM: 18%
  inhibition at 0.5 µM: 34%
[11]
  inhibition at 0.01 µM: 0%
  inhibition at 0.075 µM: 0%
  inhibition at 0.5 µM: 60%

## CCOC(=O)c1nn(-c2ccc3c(c2)OC(F)(F)C(F)(F)O3)c2cccc(C(C)=O)c2c1=O [Compound A, ethyl 5-acetyl-4-oxo-1-(2,2,3,3-tetrafluoro-1,4-benzodioxin-6-yl)cinnoline-3-carboxylate]
[1]
  inhibition at 1 µM: 42%
[2]
  inhibition at 1 µM: 0%
[3]
  inhibition at 1 µM: 6%
[4]
  inhibition at 1 µM: 3%
[5]
  inhibition at 1 µM: 3%
[6]
  inhibition at 1 µM: 0%
[7]
  inhibition at 1 µM: 2%
[8]
  inhibition at 1 µM: 59%
[9]
  inhibition at 1 µM: 31%
[10]
  inhibition at 1 µM: 33%
[11]
  inhibition at 1 µM: 0%

## CCn1c(-c2ccc(Cl)c(Cl)c2)c(C(=O)O)c(=O)c2cc(F)ccc21 [Compound M, 2-(3,4-dichlorophenyl)-1-ethyl-6-fluoro-4-oxo-quinoline-3-carboxylic acid]
[1]
  inhibition at 0.2 µM: 0%
  inhibition at 1 µM: 17%
  inhibition at 5 µM: 27%
[2]
  inhibition at 0.2 µM: 7%
  inhibition at 1 µM: 2%
  inhibition at 5 µM: 25%
[3]
  inhibition at 0.2 µM: 40%
  inhibition at 1 µM: 73%
  inhibition at 5 µM: 93%
[4]
  inhibition at 0.2 µM: 6%
  inhibition at 1 µM: 4%
  inhibition at 5 µM: 25%
[5]
  inhibition at 0.2 µM: 5%
  inhibition at 1 µM: 0%
  inhibition at 5 µM: 11%
[6]
  inhibition at 0.2 µM: 27%
  inhibition at 1 µM: 25%
  inhibition at 5 µM: 66%
[7]
  inhibition at 0.2 µM: 0%
  inhibition at 1 µM: 1%
  inhibition at 5 µM: 15%
[8]
  inhibition at 0.2 µM: 41%
  inhibition at 1 µM: 83%
  inhibition at 5 µM: 97%
[9]
  inhibition at 0.2 µM: 16%
  inhibition at 1 µM: 24%
  inhibition at 5 µM: 41%
[10]
  inhibition at 0.2 µM: 59%
  inhibition at 1 µM: 86%
  inhibition at 5 µM: 96%
[11]
  inhibition at 0.2 µM: 0%
  inhibition at 1 µM: 25%
  inhibition at 5 µM: 68%
